Source: patent EP4596561A1, “PHOSPHORUS-CONTAINING COMPOUND, PHARMACEUTICAL COMPOSITION AND USE THEREOF” (Suzhou Genhouse Bio Co., Ltd., priority 2022, dated 2024)
Like-named read-outs stand apart in the source and are kept apart here.

How the values were obtained:
[1] = Pharmacokinetic test in mice (low dose); type: in vivo, Balb/c mice; conditions: mouse, mice; for AUC(0-t): read-out: AUClast; for clearance: read-out: Cl (converted); for half-life: read-out: T1/2 (converted); for bioavailability: PO 10 mg/kg vs IV 2 mg/kg, read-out: F%; for Cmax: read-out: Cmax
[2] = test system: YAP-TEAD transcription complex; assay: YAP-TEAD reporter gene assay (dual luciferase, stably transfected 293T cells); type: cell-based; conditions: Homo sapiens, HEK-293T
[3] = 293T reporter cells, 24 h of drug treatment, read-out: IC50

| MRT ([1]; plasma, IV 2 mg/kg) | AUC(0-t) ([1]; plasma, IV 2 mg/kg) | clearance ([1]; plasma, IV 2 mg/kg) | half-life ([1]; plasma, IV 2 mg/kg) | MRT ([1]; plasma, PO 10 mg/kg) | bioavailability ([1]; plasma) | AUC(0-t) ([1]; plasma, PO 10 mg/kg) | Cmax ([1]; plasma, PO 10 mg/kg) | half-life ([1]; plasma, PO 10 mg/kg) | IC50 [2, 3] | SMILES | AUC(0-t) ([1]; in vivo, IV 2 mg/kg) | clearance ([1]; in vivo, IV 2 mg/kg) | half-life ([1]; in vivo, IV 2 mg/kg) | bioavailability ([1]; in vivo) | AUC(0-t) ([1]; in vivo, PO 10 mg/kg) | Cmax ([1]; in vivo, PO 10 mg/kg) | half-life ([1]; in vivo, PO 10 mg/kg) | IC50 ([2]; 24 h) | MRT ([1]; in vivo, IV 2 mg/kg) | MRT ([1]; in vivo, PO 10 mg/kg) |
| --- | --- | --- | --- | --- | --- | --- | --- | --- | --- | --- | --- | --- | --- | --- | --- | --- | --- | --- | --- | --- |
| – | – | – | – | – | – | – | – | – | – | Cc1ccc(Oc2ccc(C(F)(F)F)cc2)c2ccc(P(C)(C)=O)cc12 [Example 24] | 22.1 µM·h | 3.3 mL/min/kg | 660 min | 120% | 133 µM·h | 7.82 µM | 972 min | 135 nM | – | – |
| 23.4 h | 58.8 µM·h | 1 mL/min/kg | 1030 min | 34.5 h | 100% | 295 µM·h | 16.1 µM | 1540 min | 92.1 nM | CP(C)(=O)c1ccc(Nc2ccc(C(F)(F)F)cc2)c(-c2ncccn2)c1 [Example 12] | – | – | – | – | – | – | – | – | – | – |
| – | – | – | – | – | – | – | – | – | – | CP(C)(=O)c1ccc2c(c1)c1ccccc1n2-c1ccc(C(F)(F)F)cc1 [Example 1] | 30.7 µM·h | 2.83 mL/min/kg | 252 min | 118% | 182 µM·h | 12.9 µM | 234 min | 39.7 nM | 6.1 h | 6.5 h |
| – | – | – | – | – | – | – | – | – | – | CP(C)(=O)c1ccc2c(Oc3ccc(C(F)(F)F)cc3)cccc2c1 [Example 7] | 50.7 µM·h | 0.25 mL/min/kg | 7180 min | 106% | 267 µM·h | 12.7 µM | 8790 min | 4.09 nM | 171 h | 211 h |
| 75 h | 59.3 µM·h | 0.4 mL/min/kg | 3120 min | 75.6 h | 98% | 290 µM·h | 14.6 µM | 1690 min | 100 nM | CP(C)(=O)c1ccc(Nc2ccc(C(F)(F)F)cc2)c(-c2ccccn2)c1 [Example 10] | – | – | – | – | – | – | – | – | – | – |
| 2.5 h | 9.37 µM·h | 8.33 mL/min/kg | 108 min | 5.3 h | 318% | 155 µM·h | 15.5 µM | 156 min | 57.1 nM | CP(C)(=O)c1ccc2c(c1)c1cccnc1n2-c1ccc(C(F)(F)F)cc1 [Example 5] | – | – | – | – | – | – | – | – | – | – |
| – | – | – | – | – | – | – | – | – | – | Cn1cnc(-c2cc(P(C)(C)=O)cnc2Nc2ccc(C(F)(F)F)cc2)c1 [Example 8] | 7.94 µM·h | 10 mL/min/kg | 336 min | 300% | 119 µM·h | 14.6 µM | 2050 min | 42.4 nM | 6.4 h | 47.2 h |
| – | – | – | – | – | – | – | – | – | – | Cn1cnc(-c2cc(P(C)(C)=O)ccc2Nc2ccc(C(F)(F)F)cc2)c1 [Example 14] | 21.2 µM·h | 2.33 mL/min/kg | 1140 min | 106% | 112 µM·h | 8.08 µM | 738 min | 20.2 nM | 26.2 h | 17.8 h |
| – | – | – | – | – | – | – | – | – | – | CP(C)(=O)c1cnc(Nc2ccc(C(F)(F)F)cc2)c(-c2cn3c(n2)CCC3)c1 [Example 22] | 16.4 µM·h | 4.17 mL/min/kg | 534 min | 114% | 96.4 µM·h | 7.07 µM | 456 min | 13.6 nM | 10.8 h | 9.9 h |
